Measured values published in ChEMBL document CHEMBL4229329, “Design of Small-Molecule Active-Site Inhibitors of the S1A Family Proteases as Procoagulant and Anticoagulant Drugs” (J Med Chem, 2018).

Columns and labels:
[1] = Apparent permeability across apical to basolateral side in human Caco2 cells at 750 uM measured over 90 mins by HPLC-MS analysis; assay type: ADME, cell-based; settings: Caco-2
Plasma kallikrein = Plasma kallikrein (Homo sapiens, UniProt P03952); experiment: Competitive inhibition of human plasma kallikrein using S2302 as substrate by UV-visible spectrophotometer
Plasminogen = Plasminogen (Homo sapiens, UniProt P00747); experiment: Competitive inhibition of human plasmin using chromozyme PL as substrate by UV-visible spectrophotometer
Coagulation factor X = Coagulation factor X (Homo sapiens, UniProt P00742); experiment: Competitive inhibition of human factor 10a using pefachrome F10a as substrate by UV-visible spectrophotometer
Coagulation factor XI = Coagulation factor XI (Homo sapiens, UniProt P03951); experiment: Competitive inhibition of human factor 11a using pefachrome PCa as substrate by UV-visible spectrophotometer
Homo sapiens [2] = species: Homo sapiens; experiment: Selectivity ratio of Ki for human PKK to Ki for human factor 11a
[3] = Apparent permeability across apical to basolateral side in human Caco2 cells at 10 umol/l measured at 45 to 120 mins by LC-MS/MS analysis; assay type: ADME, cell-based; settings: Caco-2
Homo sapiens [4] = species: Homo sapiens; experiment: Selectivity ratio of Ki for recombinant human factor 9a to Ki for human factor 10a
[5] = Efflux ratio of apparent permeability across basolateral to apical over apical to basolateral side in human Caco2 cells; assay type: ADME, cell-based; settings: Caco-2
[6] = Oral bioavailability in human at 10 mg; assay type: ADME, organism-based; settings: in vivo
[7] = Apparent permeability across human Caco2 cells measured every 30 mins for 2 hrs; assay type: ADME, cell-based; settings: Caco-2
[8] = Oral bioavailability in human at 57 to 200 mg; assay type: ADME, organism-based; settings: in vivo

## CCOC(=O)CN[C@@H](C(=O)N1CC[C@H]1C(=O)NCc1ccc(/C(N)=N\O)cc1)C1CCCCC1 [XIMELAGATRAN]
[1]
  Papp A→B at 1.5 h, 750 µM: 2.4 ×10⁻⁶ cm/s

## N=C(N)c1ccc(CC(=O)[C@H](Cc2cccc(CN)c2)NC(=O)[C@@H](CCCc2ccccc2)NS(=O)(=O)Cc2cccc(C(=O)O)c2)cc1
Plasma kallikrein
  Ki: 0.02 nM
Plasminogen
  Ki: 2.2 nM
Coagulation factor X
  Ki: 45 nM
Coagulation factor XI
  Ki: 18 nM

## O=C(N[C@@H](Cc1ccccc1)C(=O)NCc1cc(=O)[nH]c2ccc(Cl)cc12)c1ccc2[nH]c(=O)cc(O)c2c1
Homo sapiens [2]
  Ratio Ki: 10
[3]
  Papp A→B at 10 µM: 0.28 ×10⁻⁶ cm/s

## N=C(N)c1cccc(-n2nc(C(F)(F)F)cc2C(=O)Nc2ccc(-n3cnc4ccccc43)cc2F)c1
Homo sapiens [4]
  Ratio Ki: 130

## CCCCCCOC(=O)NC(=N)c1ccc(NCc2nc3cc(C(=O)N(CCC(=O)OCC)c4ccccn4)ccc3n2C)cc1 [DABIGATRAN ETEXILATE]
[5]
  efflux ratio: 13.8

## O=C(NC[C@H]1CN(c2ccc(N3CCOCC3=O)cc2)C(=O)O1)c1ccc(Cl)s1 [RIVAROXABAN]
[6]
  bioavailability: > 80%

## N=C(N)c1ccc(CNC(=O)[C@@H]2CCN2C(=O)[C@H](NCC(=O)O)C2CCCCC2)cc1
[7]
  Papp at 2 h: 0.03 ×10⁻⁶ cm/s
[8]
  bioavailability: 3 to 7%
